Patent US4963570A, “1-(acetylaminophenyl)-2-aminopropanone derivatives and pharmaceutical compositions thereof” (Laboratoire L. Lafon, priority 1983, dated 1990)
Entries after “also recorded” stand apart in the source; their conditions may differ. Where a name gives a salt, the structure may show the parent alone.

Legend:
[1] = test system: male mice; assay: influence of catecholamines on hyperactivity in mice; type: in vivo, mouse
Procedure: A further series of assays was carried out on mice according to the teaching of S. L. HANDLEY et al. "Influences of catecholamines on dexamphetamine, induced changes in locomotor activity", Psychopharmacology 58, 283-288 (1978), in order to observe a potential influence of dopamine or moradrenaline on the hyperactivity induced by CRL 41 152.
After a habituation period of 1.5 h to the actimeters, male mice (grouped into batches of 10 animals each and a control batch of 20 animals) were administered (under slight anesthesia with ether) per intraventriculocerebral injection (i.e. I.V.C. route) with (i) either 10 μg of noradrenaline, or 10 μg of dopamine or 10 μl (0.5 μl/second) of saline solution, then (ii) 5 minutes later, with CRL 41 152 (in solution in distilled water) per I.P. route in a volume of 20 ml/kg, immediately before replacing the mice in the actimeters vherein their motility was recorded for 1 hour by measuring the number of crossed rays per period of 5 minutes).
Batches receiving CRL 41 152 per I.P. route with noradreanaline or dopamine per I.V.C. route were compared with (i) the control batch receiving the saline solution per I.V.C. route then distilled water per I.P. route, and (ii) batches receiving only noradrenaline, dopamine (per I.V.C. route) or CRL 41 152 (per I.P. route).

[2] = test system: mice; assay: interaction with reserpine; type: in vivo, mouse; conditions: i.p.; dose not stated
Procedure: Four hours after the intraperitoneal injection of 2.5 mg/kg of reserpine, groups of 6 mice receive CRL 41 224.

[3] = test system: male mice; assay: interaction with proadifen: hypothermia induced by apomorphine; type: in vivo, mouse
Procedure: (§1) Two series of experiments were carried out. In the first one, male mice (12 per dose, 12 control animals) were administered per I.P. route (i) with proadifen (75 mg/kg) at T-3 h, then (ii) with CRL 41 152 at T-0.5 h. At T=0 the mice were placed in actimeters, where their motility was recoded for 0.5 h. In the second one male mice (12 per dose, 12 control animals) were administered with proadifen and CRL 41 152 as indicated hereinabove, then subcutaneously with apomorphine (16 mg/kg) at T=0 in order to appreciate the potential variation of the hypothermia induced by apomorphine.
(§2) In these two series CRL 41 152, in solution in distilled water, was administered per I.P. route to male mice in a volume of 20 ml/kg.

[4] = test system: rats; assay: interaction with amphetamine; type: in vivo, rat; conditions: rats, i.p.; dose not stated
Procedure: Amphetamine (2 mg/kg) is injected intraperitoneally into groups of 6 rats 30 minutes after the administration of CRL 41 224.

[5] = test system: mice; assay: overall behavior and reactivities in mice; type: in vivo, mouse; conditions: mice, i.p.; dose not stated
Procedure: (§3) Groups of three animals are observed before and then 0.25 hour, 0.50 hour, 1 hour, 2 hours, 3 hours and 24 hours after the administration of CRL 41 224.

[6] = test system: mice; assay: action on the spontaneous motility (actimeter); type: in vivo, mouse; conditions: mice, i.p.; dose not stated
Procedure: 0.5 hour after they have received CRL 41 224, the mice (6 per dose, 12 control animals) are placed in an actimeter, where their motility is recorded for 30 minutes.

[7] = water solubility of the product; type: physicochemical
Procedure: The 39 g of 1-(4-acetylaminophenyl)-2-chloropropanone thus obtained are dissolved in 200 ml of isopropylamine. The resulting reaction medium is heated under reflux for 6 hours. The excess isopropylamine is evaporated off in vacuo. The evaporation residue, which is in the form of a viscous oil, is taken up with 200 ml of anhydrous ethanol and the hydrochloride is recipitated by means of a stream of HCl gas.

[8] = test system: mice; assay: motility reduced by hypoxic aggression; type: in vivo, mouse; conditions: i.p., dose not stated
Procedure: Half an hour after they have received CRL 41 224, the mice (10 per dose, 20 control animals) are subjected to acute hypobaric anoxia [pressure reduction of 600 mm Hg (i.e. about 8×10^4 Pa) in 90 seconds; release of vacuum in 45 seconds] and are then placed in an actimeter, where their motility is recorded for 10 minutes.

[9] = test system: rats; assay: overall behavior and reactivities in rats; type: in vivo, rat; conditions: i.p., dose not stated, hydrochloride
Procedure: as §3

[10] = test system: mice; assay: four plate test, traction and electric shock; type: in vivo, mouse; conditions: i.p.; dose not stated
Procedure: The test is performed on groups of 10 mice 30 minutes after the administration of CRL 41 224.

[11] = test system: mice; assay: motility reduced by habituation to the enclosure; type: in vivo, mouse; conditions: i.p., dose not stated
Procedure: After they have stayed in the actimeters for 18 hours, the mice (6 per dose, 12 control animals) receive CRL 41 224. They are immediately returned to their respective enclosures and, half an hour later, their motility is recorded for 30 minutes.

[12] = test system: mice; assay: interaction with barbital; type: in vivo, mouse; conditions: i.p.; dose not stated
Procedure: Half an hour after the administration of CRL 41 224, groups of 10 mice receive an intraperitoneal injection of barbital (220 mg/kg).

[13] = test system: mice; assay: action on the behavioral despair; type: in vivo, mouse; conditions: i.p., dose not stated
Source text: Half an hour after they have received CRL 41 224, groups of 6 mice are placed in a beaker filled with water to a height of 6 cm. The total period of immobility between the 2nd and 6th minutes following immersion is noted.

[14] = test system: peripheral α-adrenergic stimulation; assay: signs of peripheral adrenergic stimulation; type: in vivo, mouse; rat; conditions: i.p.; dose not stated
Procedure: as §3

[15] = test system: rats; assay: action on stereotypies in rats (α-methyltyrosine, haloperidol, reserpine)
[16] = test system: mice; assay: interaction with barbital; type: in vivo, mouse; conditions: gastric route
[17] = test system: rats; assay: interaction with apomorphine in rats; type: in vivo, rat; conditions: i.p., dose not stated
Procedure: CRL 41 224 is administered to groups of 6 rats 0.5 hour before the subcutaneous injection of 0.5 mg/kg of apomorphine.

[18] = test system: mice; assay: toxicity to grouped mice compared with isolated mice; type: in vivo, mouse
[19] = test system: CNS; assay: overall neuropsychopharmacological (CNS) profile; type: in vivo, mouse; rat; conditions: i.p., mice and rats; dose not stated; hydrochloride
Procedure: The neuropsychopharmacological study of CRL 41 219 was carried out as indicated above for CRL 41 224.
The neuropsychopharmacological study of CRL 41 220 was carried out in accordance with the procedures given above for CRL 41 224.

[20] = test system: man; assay: clinical trials; type: in vivo, human; conditions: man, tablets or gelatine capsules 5 to 75 mg, 1 to 3 per day
[21] = test system: mice; assay: interaction with oxotremorine; type: in vivo, mouse; conditions: i.p.; dose not stated
Procedure: CRL 41 224 is administered to groups of 6 mice 0.5 hour before the intraperitoneal injection of 0.5 mg/kg of oxotremorine.

[22] = test system: male mice; assay: interaction with proadifen: motility; type: in vivo, mouse
Procedure: as §1, §2

[23] = test system: mice; assay: interaction with apomorphine in mice; type: in vivo, mouse; conditions: i.p.; dose not stated
Procedure: Groups of 6 mice receive CRL 41 224 0.5 hour before the subcutaneous injection of 1 or 16 mg/kg of apomorphine.

[24] = test system: White New Zealand gravid female rabbits; assay: teratogenic study; type: in vivo, rabbit
[25] = proadifen 75 mg/kg i.p. then CRL 41 152

In the case of `CC(=O)Nc1ccc(C(=O)C(C)NC(C)C)cc1` (centres unmarked) [CRL 41 152, 1-(4-acetylaminophenyl)-2-isopropylaminopropanone hydrochloride], the “effect of prior dopamine on the motor activity caused” value ([1]; dopamine 10 μg I.V.C.) is reported as “did not modify the motor activity caused by CRL 41 152”, the motor activity ([1]; i.p., 8 mg/kg, one-hour recording) is reported as “distinct statistically significant increase in motor activity” and the “effect of prior noradrenaline on the motor stimulant effect” value ([1]; noradrenaline 10 μg I.V.C.) is reported as “distinct statistically significant decrease in the motor stimulant effect”. The “hypothermia induced by reserpine” value [2] was “antagonism of the hypothermia induced by apomorphine, oxotremorine or reserpine”, the “ptosis induced by reserpine” value [2] was “antagonism of the ptosis induced by reserpine” and the “hypothermia induced by apomorphine” value ([3]; i.p., 8 and especially 32 mg/kg, apomorphine 16 mg/kg s.c.) was “antagonism vis-a-vis the hypothermia induced by apomorphine”. The “righting behaviour and stereotypies induced by apomorphine” value ([3]; i.p., apomorphine 16 mg/kg s.c.) was “Neither proadifen, nor CRL 41 152, nor their combination modify the righting behaviour”, the “effect of proadifen on antagonism vis-a-vis the hypothermic effect of apomorphine” value [3, 25] was “does block the antagonism” and the “stereotypies induced by amphetamine” value [4] was “potentiation of the stereotypies induced by apomorphine or amphetamine”. The excitation in mice [5] was “excitation with hyperreactivity in mice”, the “spontaneous motility / motor activity” value [6] was “an increase in the spontaneous motility in mice” and the water solubility [7] was “very water-soluble”. For the same compound, the “motor recovery after hypoxic aggression” value [8] was “an improvement in the motor recovery in mice after acute hypoxia”, the “stereotype movements in rats” value [9] was “stereotype movements in rats; also recorded: induces stereotype movements” and the “convulsant effects of electric shock” value [10] was “anticonvulsant effects”. For the same compound, the “motor activity after habituation to the enclosure” value [11] was “a resumption in the motor activity of mice accustomed to their enclosure”, the “sleep induced by barbital” value [12] was “antagonism of the sleep induced by barbital” and the “period of immobility or "despair"” value [13] was “a reduction in the immobility”. For the same compound, the exophthalmos [14] was “absent”, the mydriasis [14] was “mydriasis” and the “peripheral adrenergic stimulation, overall” value [14] was “effects which may reflect peripheral adrenergic stimulation”. For the same compound, the salivation [14] was “absent”, the “effect of haloperidol on induced stereotypies” value ([15]; haloperidol 0.25 mg/kg i.p. 0.5 h before) was “almost totally prevents the appearance of stereotypies” and the “effect of haloperidol on induced stereotypies” value ([15]; haloperidol 0.5 mg/kg i.p. 0.5 h before) was “totally inhibits the said stereotypies”. For the same compound, the “suppression of induced stereotype movements by prior injection of alpha-methyltyrosine” value ([15]; i.p.) was “not suppressed”, the “effect of reserpine on induced stereotypies” value ([15]; reserpine 4 mg/kg i.p. 24 hours before) was “only a moderate reduction of the stereotypies” and the “inhibition by α-methyltyrosine of the induced stereotypies” value ([15]; α-methyltyrosine 128 mg/kg i.p. 2.5 h before 30 mg/kg i.p. CRL 41 152) was 4%. The “interaction with barbital, kinetic study” value [16] was “clearly showed the interest of CRL 41 152 as awakening agent”, the “stereotypies induced by apomorphine” value [17] was “potentiation of the stereotypies induced by apomorphine” and the “toxicity to grouped mice compared with isolated mice” value [18] was “do not increase the toxicity to grouped mice”. For the same compound, the “overall action on the CNS” value [19] was “stimulant effects; also recorded: antidepressant effects”, the “clinical result: depressions, hypersomnia and GELINEAU's disease” value [20] was “excellent drug for treating depressions in man as well as hypersomnia and GELINEAU's disease” and the “hypothermia induced by oxotremorine” value [21] was “antagonism of the hypothermia induced by apomorphine, oxotremorine”. For the same compound, the “trembling caused by oxotremorine” value [21] was “antagonism of the trembling caused by oxotremorine”, the spontaneous motility ([22]; i.p., administered alone) was “increases the spontaneous motility in mice” and the “effect of proadifen on the induced hypermotility” value [22, 25] was “does not cause a distinct reduction of the hypermotility”. The “hypothermia induced by apomorphine” value [23] was “antagonism of the hypothermia induced by apomorphine” and the teratogenic effect [24] was “does not exhibit any harmful teratogenic effect”.
